The nature of data set [1]: In vitro stability in serum. In kind it is in vitro ADME, mouse. As to conditions: up to 120 min at 37 °C.
The test system of another data set is K. pneumoniae. Kind of data set: In vitro uptake of 18F-tracers by bacteria. The format is cell-based, Klebsiella pneumoniae. Here is the method: (§1) In vitro evaluation of ^18F-tracers was conducted according to our established procedure. Briefly, bacteria were incubated overnight at 37 °C, subcultured into a fresh medium at an initial OD600 of 0.05, and then allowed to reach the mid log phase (OD600 ∼ 0.4). The cultures were subsequently incubated with ^18F-tracers (final concentration: 0.1 MBq/mL) at 37 °C for 90 min. Subsequently, 300 μL aliquots of these cultures were centrifuged at 13,200 rpm for 6 min. The resulting pellets were washed with 300 μL of phosphate-buffered saline (PBS). The radioactivity of the pellets and supernatants was measured using a gamma counter. Uptake values were normalized to colony-forming units (CFUs).

For another data set, the system named is MRSA. As to the kind of experiment: PET/CT in MRSA myositis murine model. The format is in vivo, mice. The following applies: for ratio of live/heat-killed S. aureus inoculated sites, in vivo: PET 80 min postinjection (mid time). On the procedure: We next compared [^18F]-FNT and [^18F]-FMT PET in a S. aureus myositis model. […] To compare the in vivo detection sensitivity of [^18F]-FNT and [^18F]-FMT in a MRSA myositis model, we injected the left deltoid with live MRSA and the right deltoid with 10x heat-killed MRSA, respectively (Figure B).
All animal procedures were conducted in accordance with UCSF institutional guidelines and were approved by the Institutional Animal Care and Use Committee (IACUC). Female CBA/J mice (9 and 11 weeks old) were used for the study. Pulmonary infection and bacterial myositis models were established based on previously published protocols. , For pulmonary infection, 50 μL of K. pneumoniae (5 × 10^6 CFU) or 10× heat-killed K. pneumoniae were administered intranasally under anesthesia 24 h prior to imaging using PET. After PET scans, infected lungs were homogenized in PBS and plated on LB agar. Plates were incubated overnight at 37 °C to quantify the bacterial burden. […] Immediately following all imaging studies, target tissues were harvested, and radioactivity was measured using a gamma counter.
μPET/CT imaging was conducted using a nanoScan μPET/CT instrument (PET123S/CT1512, Mediso). Mice were anesthetized with 2% isoflurane/oxygen for intravenous administration of ^18F-tracers (∼5 MBq in 150 μL) via tail vein and maintained during data acquisition. PET data of uninfected mice were acquired in the list mode for 90 min, starting immediately after ^18F-tracer administration, followed by a CT scan. The PET data were reconstructed into three-dimensional volumes and coregistered with CT images using manufacturer-provided software in 53 dynamic frames (15 × 2 s, 6 × 5 s, 6 × 10 s, 4 × 30 s, 6 × 30 s, and 16 × 300 s). PET data of infected mice were acquired for 20 min, starting at 70 min postinjection of ^18F-tracer (mid time 80 min), followed by a CT scan. The list mode PET data were reconstructed into three-dimensional volumes in a single static frame. All PET scans were corrected for ^18F decay, dead time, and random coincidences and reconstructed into a 160 × 160 × 184 matrix with voxel size 0.8 mm using a three-dimensional ordered subject expectation maximization (OSEM) algorithm (40 iterations, 1 subset). Both attenuation and scatter corrections were applied to PET reconstructions using the coregistered CT. ROIs were drawn manually around the brain, lungs, liver, kidney, and urinary bladder using Amide software to generate image-derived TACs. For the estimation of blood pool radioactivity over time, ROIs were drawn on the left atrium. To estimate the plasma half-life of tracers, the TAC of the blood pool was fitted to a two-compartment model using a biexponential decay function: C t(t) = Ae ^–αt + Be ^ ‑βt , where C t(t) is the tracer concentration (% IDcc^–1) at time (t), A and B are the intercepts, and α and β are the distribution and elimination rate constants, respectively. , Quantitative uptake values are expressed as % IDcc^–1, representing the percent of the total injected dose per cubic centimeter. For the S. aureus myositis model, identical volume ROIs were drawn corresponding to the peak uptake of [^18F]-FNT at the live S. aureus inoculated site and heat-killed S. aureus inoculated site, respectively.

The nature of data set [2]: Human radiation dosimetry extrapolated from murine biodistribution. In kind it is in vivo. Here is the method: A dosimetry study was carried out in female CBA/J mice (n = 4, 9–11 weeks). Human organ and whole-body effective doses were extrapolated from the mice biodistribution data according to our previous report. For each organ, absorbed and equivalent doses (mGy/MBq or mSv/MBq), as well as whole-body effective doses (mSv/MBq), were calculated from murine data. Dose estimations were performed with OLINDA software (v1.1 and 2.0 with ICRP 60 and 103 tissue weighting factors). ,

Data set [3] is described as follows: Radio-HPLC analysis of urine samples (metabolic stability in vivo). As to conditions: urine from healthy mice 90 min after i.v. administration. Here is the method: 7 Dosimetry extrapolated to humans and metabolic stability of [^18F]-FNT. (A) Estimated absorbed dose (mGy/MBq) extrapolated from murine biodistribution data using ICRP103 (adult female, 60 kg). (B–D) Representative radio-HPLC profiles of [^18F]-FDS (B), [^18F]-FNT (C), and urine samples collected from healthy mice 90 min following [^18F]-FNT administration via i.v. (D).

The next data set relates to Streptococcus pyogenes. Kind of data set: In vitro uptake of 18F-tracers by bacteria. In kind it is cell-based. The following applies: S. pyogenes; 37 °C, 90 min. On the procedure: as §1
In a further data set the test system is Enterococcus faecalis. Kind of data set: In vitro uptake of 18F-tracers by bacteria. In kind it is cell-based. As to conditions: E. faecalis; 37 °C, 90 min. Here is the method:
as §1

For data set [4], the system named is Staphylococcus epidermidis. As to the kind of experiment: In vitro uptake of 18F-tracers by bacteria. As to conditions: S. epidermidis; 37 °C, 90 min. In kind it is cell-based. Here is the method: as §1
The next data set concerns Listeria monocytogenes. Kind of data set: In vitro uptake of 18F-tracers by bacteria. The format is cell-based. The following applies: L. monocytogenes; 37 °C, 90 min. Here is the method:
as §1

The test system of another data set is Streptococcus agalactiae. Kind of data set: In vitro uptake of 18F-tracers by bacteria. The format is cell-based. The following applies: S. agalactiae; 37 °C, 90 min. On the procedure: as §1
A further data set concerns S. aureus (ATCC 29213). Kind of data set: In vitro uptake of 18F-tracers by bacteria. The format is cell-based, Staphylococcus aureus. Here is the method: as §1
Data set [5] relates to methicillin-resistant S. aureus (MRSA) clinical isolates. Kind of data set: In vitro uptake in clinical isolates. The format is cell-based, Staphylococcus aureus. As to conditions: P < 0.0001. Here is the method: as §1
The test system of data set [6] is methicillin-sensitive S. aureus (MSSA) clinical isolates. As to the kind of experiment: In vitro uptake in clinical isolates. In kind it is cell-based, Staphylococcus aureus. As to conditions: vs S. aureus ATCC 29213; P < 0.0001. On the procedure: as §1

The values that follow come from PMC12728616, “Regioselective Glycosylation of Fluorine-18-Labeled Sorbitol for Enhanced Bacterial Detection In Vivo Using PET” (JACS Au, 2025).

Molecules are shown by their SMILES.

Regarding `OC[C@@H](O)[C@@H](O[C@H]1O[C@H](CO)[C@@H](O)[C@H](O)[C@H]1O)[C@H](O)[C@@H]([18F])CO` [[18F]FMT, 2-deoxy-2-[18F]fluoro-D-maltitol], the “in vitro stability in mouse serum” value in data set [1] is “intact”. For the same compound, the in vitro uptake entry in the data set with K. pneumoniae is reported as “considerable uptake”. Besides, the “ratio of live/heat-killed S. aureus inoculated sites, in vivo” value in the data set on MRSA (MRSA myositis) is recorded as 6 fold. In the data set on MRSA (MRSA myositis, ex vivo analysis), the “ratio of live/heat-killed S. aureus inoculated sites, ex vivo” value is recorded as 2.7 fold.

With `OC[C@@H](O)[C@@H](O)[C@H](O[C@H]1O[C@H](CO)[C@@H](O)[C@H](O)[C@H]1O)[C@@H]([18F])CO` [[18F]FNT, 2-deoxy-2-[18F]fluoro-D-nigeritol], the “in vitro stability in mouse serum” value in data set [1] is on record as “intact”. Further, the in vitro uptake entry in the data set on K. pneumoniae is “considerable uptake”; with Streptococcus pyogenes it was “low”; in the data set with Enterococcus faecalis, “moderate uptake”; in data set [4], “moderate uptake”; in the data set with Listeria monocytogenes it was “low”; in the data set on Streptococcus agalactiae, “low”. Further, the in vitro uptake entry with S. aureus (ATCC 29213) (S. aureus, 37 °C, 90 min) is recorded as “moderate uptake”. The “calculated human effective dose” value in [2] (ICRP 60) was 0.0163 ± 0.0012 mSv/MBq; in [2] (ICRP 103), 0.0126 ± 0.0005 mSv/MBq. Also, the kidneys dose in data set [2] (ICRP 60 model) was 0.0753 ± 0.0307 mSv/MBq; in [2] (ICRP 103 model) it was 0.0751 ± 0.0307 mSv/MBq. The urinary bladder dose is reported as 0.1783 ± 0.0314 mSv/MBq in data set [2] (ICRP 60 model) and 0.1518 ± 0.0262 mSv/MBq in data set [2] (ICRP 103 model). The “estimated organ-absorbed doses overall” value in data set [2] (overall, called low) is above 0.02 mSv/MBq. Also, the “metabolic stability in vivo (urine radio-HPLC)” value in data set [3] is recorded as “remained intact, with no degradation observed”. The “uptake in the presence of nonradioactive [19F]FNT (blocking)” value with S. aureus (ATCC 29213) (S. aureus ATCC 29213, 1 mM [19F]FNT, P < 0.0001) is “significantly reduced”. Also, the “uptake in heat-killed S. aureus” value with S. aureus (ATCC 29213) (heat-killed bacteria, P < 0.0001) is given as “no uptake”. For the same compound, the “ratio of live/heat-killed S. aureus inoculated sites, in vivo” value in the data set on MRSA (MRSA myositis) was around 28 fold. Also, the “uptake at heat-killed sites, dynamic PET” value in the data set on MRSA (by 70 min postinjection) is given as “negligible”. In the data set on MRSA (inoculum 10^4 CFU, not significant vs uninfected controls (P = 0.2187)), the “PET signal at live MRSA inoculated deltoid, 10^4 CFU” value is “negligible signals”. Besides, the “PET signal at sites inoculated with heat-killed MRSA” value in the data set with MRSA (static PET/CT 80 min postinjection (mid time)) is listed as “no detectable signal”. Moreover, in [5] (in vitro), the “higher uptake in clinically isolated MRSA compared with [18F]FMT” value is listed as “approximately 4 fold”. The “uptake in clinical MRSA isolates compared to the reference MSSA strain” value in data set [5] (vs S. aureus ATCC 29213) was “higher uptake”. Besides, the “uptake in clinical MSSA isolates compared to the reference MSSA strain” value in data set [6] is “higher uptake”.
